The values that follow come from patent US12122741B2, “Therapeutic phenethylamine compositions and methods of use” (CYBIN IRL LIMITED, priority 2020, dated 2024).

The conditions of data set [1]: cited from earlier work.
The target of data set [2] is T1, serotonin 5-HT2A receptor (Mus musculus, UniProt P35363).
T1 construct: tissue Jackson Laboratory; host or cells: living C57Bl/6J mice (whole animal, behavioural read-out)
The experiment in a line: head-twitch response (HTR). Format: in vivo, C57Bl/6J mice. To be noted: for HTR compared to DOI (positive control, 1 mg/kg) / HTR compared to vehicle: HTRs counted for 15 minutes, adult male mice; for model fit of data (GraphPad Prism 9): FIG. 16 legend. Here is the method: The HTR assay was performed in adult, male C57Bl/6J mice, procured from the Jackson Laboratory (Bar Harbor, Maine), as previously described (Canal, C. E., and Morgan, D., 2012, Head-twitch response in rodents induced by the hallucinogen 2,5-dimethoxy-4-iodoamphetamine: a comprehensive history, a re-evaluation of mechanisms, and its utility as a model, Drug Test Anal 4, 556-576; Saraf, T. S., Felsing, D. E., Armstrong, J. L., Booth, R. G., and Canal, C. E., 2021, Evaluation of lorcaserin as an anticonvulsant in juvenile Fmr1 knockout mice, Epilepsy Res 175, 106677). Mice were housed in standard laboratory cages with ad libitum access to food and water, and were acclimated to the vivarium for at least one week prior to testing in a procedure room. On the day of testing, mice were acclimated to the procedure room in their home cages for ≥60 mi before administration of test compounds. Mice were injected subcutaneously, placed immediately thereafter in a clear, polycarbonate box (46×20×20 cm), and HTRs were counted for 15 consecutive minutes, using hand-held tally counters, by two trained observers who were blind to treatment.

The target in data set [3] is T2, human serotonin 5-HT2A receptor (Homo sapiens, UniProt P28223).
T2 construct: host or cells: HEK293 (ATCC CRL-1573), transient transfection, membrane preparation
T2 sequence (P28223 whole entry): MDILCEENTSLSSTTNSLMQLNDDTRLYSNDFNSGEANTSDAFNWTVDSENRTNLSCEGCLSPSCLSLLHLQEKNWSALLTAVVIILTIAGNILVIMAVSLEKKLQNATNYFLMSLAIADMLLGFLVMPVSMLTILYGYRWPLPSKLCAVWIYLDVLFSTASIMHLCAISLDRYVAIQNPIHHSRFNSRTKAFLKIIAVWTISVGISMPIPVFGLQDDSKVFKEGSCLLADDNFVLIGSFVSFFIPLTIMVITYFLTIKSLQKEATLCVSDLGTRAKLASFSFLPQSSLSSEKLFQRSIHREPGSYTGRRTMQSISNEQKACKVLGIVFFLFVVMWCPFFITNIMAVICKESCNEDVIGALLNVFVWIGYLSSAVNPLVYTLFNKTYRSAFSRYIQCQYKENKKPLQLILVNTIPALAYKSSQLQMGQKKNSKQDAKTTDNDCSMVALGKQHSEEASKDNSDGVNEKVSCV
Kind of data set: radioligand competition binding, [3H]Ketanserin. As to conditions: HEK293 membranes, [3H]Ketanserin ~1.6 nM. How it is done:
Radioligand competition binding was performed as previously described (Saraf, T. S., Felsing, D. E., Armstrong, J. L., Booth, R. G., and Canal, C. E., 2021, Evaluation of lorcaserin as an anticonvulsant in juvenile Fmr1 knockout mice, Epilepsy Res 175, 106677), with minor modifications. Plasmids encoding human serotonin 5-HT2A receptor cDNA were procured from the cDNA Resource Center. Human embryonic kidney cells (HEK293, ATCC CRL-1573) were grown in a cell incubator in 100 mm dishes with antibiotic-free Dulbecco's modified Eagle's medium containing 10% fetal bovine serum. Cells were transfected at ˜85% confluency with […] cDNA using TransIT-2020 reagent (Mirus Bio, Madison, Wisconsin). After approximately 48 hours, cell membrane was collected via centrifugation. For all experiments, serotonin (5-HT) hydrochloride was used as a positive control, and mianserin hydrochloride (10 μM) was used to define non-specific binding. Each cell membrane homogenate expressing 5-HT2A receptors was incubated in 96-well plates with [^3H]Ketanserin (PerkinElmer, Waltham, Massachusetts), ˜1.6 nM (its Kd at human 5-HT2A receptors), in the absence or presence of test compounds in a buffer. Following equilibration, each sample was filtered rapidly under vacuum through fiberglass filters presoaked in a buffer and rinsed several times with an ice-cold buffer using a cell harvester. Filters were soaked with scintillation fluid, and counts per minute were detected using photodetectors. IC50 values were computed using nonlinear, least squares regression analyses and then converted to Ki values using the Cheng-Prusoff equation (GraphPad Prism 9.0, San Diego, California).

The nature of data set [4]: in vitro liver metabolism (metabolic stability). In kind it is in vitro ADME. To be noted: rat liver microsomes, NADPH regenerating system, 0 to 60 min. How it is done: In Vitro Liver Metabolism and Kinetic Deuterium Isotope Effects Compounds (10 μl of 2 μM solution) are incubated in 200 μl of medium that contains […] rat liver microsomes, NADPH regenerating system (1 mM NADP, 1 unit/ml of isocitrate dehydrogenase, 5 mM isocitric acid, 5 mM magnesium chloride), and 25 mM of phosphate buffer (pH 7.4). The reaction is terminated at different time points (0 to 60 min) by the addition of 300 μl of acetonitrile. For the analyses of products, the precipitated salts and proteins are spun out on a centrifuge, the residual solution diluted with 300 μl of water and injected into the LC/MS (Agilent 1200 system interfaced with an ABS Sciex 4000 QTRAP LC/MS/MS Mass Spectrometer). The metabolic stability may be estimated by evaluating the rate of disappearance of the main parent peak.

T1 sequence (P35363 whole entry): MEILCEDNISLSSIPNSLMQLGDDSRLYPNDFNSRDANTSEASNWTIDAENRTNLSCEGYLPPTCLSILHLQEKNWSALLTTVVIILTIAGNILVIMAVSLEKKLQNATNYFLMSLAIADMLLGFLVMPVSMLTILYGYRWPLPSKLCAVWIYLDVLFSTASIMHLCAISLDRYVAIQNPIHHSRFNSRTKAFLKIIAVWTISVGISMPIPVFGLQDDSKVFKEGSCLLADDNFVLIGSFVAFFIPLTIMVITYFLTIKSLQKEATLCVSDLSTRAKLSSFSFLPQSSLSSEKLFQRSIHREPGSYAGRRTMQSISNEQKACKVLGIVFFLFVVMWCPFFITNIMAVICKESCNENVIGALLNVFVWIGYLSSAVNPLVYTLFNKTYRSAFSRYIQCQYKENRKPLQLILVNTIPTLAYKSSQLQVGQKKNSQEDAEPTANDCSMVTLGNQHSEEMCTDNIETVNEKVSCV

As to `COc1cc(OC)c(OC)cc1CCN` [2C—O], the “activity after oral administration” value in data set [1] is “inactive”.
As to `COc1cc(SC(F)(F)F)c(OC)cc1CCN` [Compound I-1, 2-(2,5-dimethoxy-4-((trifluoromethyl)thio)phenyl)ethan-1-amine], in data set [2] (3 mg/kg, subcutaneous), the “HTR compared to DOI (positive control, 1 mg/kg)” value was “not statistically different from DOI” and the “HTR compared to vehicle” value is “statistically different from vehicle”. Moreover, the “model fit of data (GraphPad Prism 9)” value in data set [2] was “fit best to a two-site model”. In addition, in data set [3], the “activity at serotonin 5-HT2A receptors (FIG. 17)” value was “pronounced agonists”; the “difference in affinity between deuterated and non-deuterated compounds” value is on record as “no significant differences in affinity”.
As to `[2H]C([2H])([2H])Oc1cc(SC(F)(F)F)c(OC([2H])([2H])[2H])cc1CCN` [Compound II-10, 2-(2,5-bis(methoxy-d3)-4-((trifluoromethyl)thio)phenyl)ethan-1-amine], the “effect of deuteration of the 2,5-methoxy groups on HTR (versus Compound I-1)” value in data set [2] (3 mg/kg, subcutaneous, 15 minutes) is “increased the HTR response”. In addition, in data set [2] (3 mg/kg, subcutaneous), the “HTR compared to DOI (positive control, 1 mg/kg)” value was “not statistically different from DOI” and the “HTR compared to vehicle” value was “statistically different from vehicle”. For the same compound, in data set [2], the “model fit of data (GraphPad Prism 9)” value is “fit best to a two-site model”. In data set [3], the “activity at serotonin 5-HT2A receptors (FIG. 17)” value is on record as “pronounced agonists”; the “difference in affinity between deuterated and non-deuterated compounds” value was “no significant differences in affinity”.
Consider `[2H]C([2H])([2H])Oc1cc(C([2H])([2H])C([2H])([2H])N)c(OC([2H])([2H])[2H])cc1Br` [Compound II-14, 2-(4-bromo-2,5-bis(methoxy-d3)phenyl)ethan-1,1,2,2-d4-1-amine], for which the “half life longer than Reference Compound 2 (2C—B)” value in data set [4] was determined as 50%.
